Measurements taken from patent US11714094B2, “Composition comprising prostacyclin andor analogues thereof for treatment of acute critically ill patients” (priority 2015, dated 2023).
Read-outs that look alike come from different tables or passages of the source.

Assays:
[1] = system: endothelial derived biomarkers; test: Healthy volunteer study, 2 hours i.v. Ilomedin infusion: plasma endothelial derived biomarkers by ELISA; assay type: in vivo, human; conditions: 1 ng/kg/min i.v. for 2 hours
Protocol: Blood samples for endothelial function were collected at the following time-points: Before the infusion (0 h), after 30 min infusion (30 min), immediately after ceasing the infusion (2 h) and 2 hours after the end of iloprost infusion. Endothelial function was evaluated by measuring plasma levels of endothelial derived biomarkers by commercially available ELISA kits. Biomarkers indicating: Endothelial glycocalyx damage (syndecan-1), endothelial cell damage (thrombomodulin) and endothelial cell anticoagulation (protein C) were investigated. Furthermore, we measured plasma concentration of prostacyclin (FIG. 3).

[2] = system: endothelial derived biomarkers; test: Randomized placebo controlled trial of i.v. Ilomedin in Whipple surgery patients: plasma endothelial derived biomarkers by ELISA; assay type: in vivo, human; conditions: 1 ng/kg/min i.v.
Protocol: (§1) TEG was performed according to the manufactures recommendations. Endothelial function was evaluated by measuring plasma levels of endothelial derived biomarkers by commercially available ELISA kits. Biomarkers indicating: Endothelial glycocalyx damage (syndecan-1), endothelial cell damage (thrombomodulin) and necrosis (nucleosomes) were investigated.

[3] = Randomized placebo controlled trial of 24 hours i.v. Ilomedin in AMI PCI patients: hemodynamics and bleeding events; assay type: in vivo, human; conditions: 0.5 ng/kg/min i.v. for 24 hours, during or after infusion
Protocol: (§2) Ilomedin® (iloprost, prostacyclin analog) infusion at a dose of 0.5 ng/kg/min compared to placebo in 17 patients with acute myocardial infarction (AMI) undergoing percutanuous coronary intervention (PCI) with stent implantation [Holmvang et al 2012]. Patients randomized to 24 hours active (n=9) or placebo (n=8) therapy were evaluated for hemodynamics, bleeding events and for functional whole blood hemostasis (Multiplate, TEG) and endothelial function in blood sampled before iloprost infusion (baseline), during infusion (1 h, 6 h and 24 h) and 24 hours after ceasing iloprost infusion (48 h). Bleeding was evaluated by GUSTO criteria (severe, moderate, mild, none) and hemostasis was evaluated by Multiplate and TEG according to the manufactures recommendations. Endothelial function was evaluated by measuring plasma levels of endothelial derived biomarkers by commercially available ELISA kits. Biomarkers indicating: Endothelial glycocalyx damage (syndecan-1), endothelial cell damage (thrombomodulin), endothelial cell activation (sE-selectin, ICAM-1) and anticoagulation (protein C) were investigated.

[4] = system: endothelial derived biomarkers; test: Randomized placebo controlled trial of 24 hours i.v. Ilomedin in AMI PCI patients: plasma endothelial derived biomarkers by ELISA; assay type: in vivo, human; conditions: 0.5 ng/kg/min i.v. for 24 hours, baseline to 48 h
Protocol: as §2

[5] = system: functional whole blood hemostasis; test: Randomized placebo controlled trial of i.v. Ilomedin in Whipple surgery patients: TEG; assay type: in vivo, human
Protocol: as §1

[6] = system: functional whole blood hemostasis; test: Randomized placebo controlled trial of 24 hours i.v. Ilomedin in AMI PCI patients: Multiplate, TEG; assay type: in vivo, human; conditions: 0.5 ng/kg/min i.v. for 24 hours, during or after infusion
Protocol: The inventors conducted a randomized placebo controlled double blind clinical trial investigating safety and efficacy of 24 hours i.v. Ilomedin® (iloprost, prostacyclin analog) infusion at a dose of 0.5 ng/kg/min compared to placebo in 17 patients with acute myocardial infarction (AMI) undergoing percutanuous coronary intervention (PCI) with stent implantation [Holmvang et al 2012]. Patients randomized to 24 hours active (n=9) or placebo (n=8) therapy were evaluated for hemodynamics, bleeding events and for functional whole blood hemostasis (Multiplate, TEG) and endothelial function in blood sampled before iloprost infusion (baseline), during infusion (1 h, 6 h and 24 h) and 24 hours after ceasing iloprost infusion (48 h).

[7] = Whipple surgery patients
Protocol: The inventors conducted a randomized placebo controlled double blind clinical trial investigating safety and efficacy of intra- and post-operative i.v. Ilomedin® (iloprost, prostacyclin analog) infusion at a dose of 1 ng/kg/min compared to placebo in 16 patients undergoing whipple surgery at Rigshospitalet, a tertiary level teaching University hospital in Copenhagen, Denmark. The inclusion criteria were adults (age […]) undergoing whipple surgery based on surgical indication due to cancer/dysplasia, familial adenomatous polyposis or inflammation/pancreatitis.
Data on demography, co-morbidities, surgical time and 28-day mortality were assessed. Hemodynamics were measured continuously (heart rate (HR), systolic, diastolic and mean arterial pressure (SBT, DBT, MAP)) or at baseline, end of surgery and 6 h and 24 h post-operative (systemic vascular resistance (SVR), stroke volume (SV), central venous pressure (CVP)). The volume and number of units of red blood cells (RBC), plasma and platelet concentrates administered were recorded at the end of surgery, 6 h and 24 h post-operative. Bleeding volume was assessed intra-operative and 6 h and 24 h post-operative. The volume of crystalloids and colloids (only albumin was allowed) was, together with urine output, recorded intra-operative and 6 h and 24 h post-operative.
Blood samples for evaluation of functional whole blood hemostasis (TEG) and endothelial function were collected pre-commencing infusion with study drug (baseline), at the end of surgery (post-op) and 6 h after surgery just before ceasing study drug infusion (6 h). Blood samples for routine biochemistry (hemoglobin, creatinine and lactate) were collected at baseline, post-op and 6 h and 24 h post-operative.

[8] = cited from earlier work
[9] = Healthy volunteer study, 2 hours i.v. Flolan infusion: hemodynamics; assay type: in vivo, human; conditions: eight healthy male volunteers; 4 ng/kg/min i.v. for 2 hours; any time point
Protocol: The study was conducted investigating the influence of 2 hours i.v. Flolan® (epoprostenol sodium, prostacyclin analog) infusion at a dose of 4 ng/kg/min in eight healthy male volunteers.

whole blood hemostasis = test: Healthy volunteer study, 2 hours i.v. Flolan infusion: Multiplate and TEG; assay type: in vivo, human; conditions: eight healthy male volunteers; 4 ng/kg/min i.v. for 2 hours
From the text: The term “thrombelastography” or “TEG” refers to a commercially available viscoelastic whole blood hemostasis assay employing citrated or non-anticoagulated blood. The TEG analyzer uses a small whole blood sample in a rotating cup and a pin suspended in the blood by a torsion wire, which is monitored for motion. To speed up the clot formation, a standardized amount of an activator of coagulation (e.g. kaolin, tissue factor) may be added to the cup just before the pin is placed in the cup. The TEG assay is suitable for determining important parameters in the clotting activity (clot initiation time, clot build up dynamics), clot strength (maximum amplitude (MA)) and clot degradation (fibrinolysis). The TEG system's approach to monitoring patient hemostasis is based on the premise that the end result of the hemostatic process is the clot. The clot's physical properties determine whether the patient will have normal hemostasis, or will be at increased risk for hemorrhage or thrombosis. The term “Multiplate” refers to a commercially available impedance aggregometry based whole blood platelet function analyzer employing anti-coagulated blood. The Multiplate analyzer uses a small whole blood sample in a chamber with two pairs of platinum electrodes. Standardized platelet agonists are added to the blood in the chamber to investigate specific platelet activation/signaling pathways. […]

[10] = system: clot formation and platelet aggregation; test: Functional whole blood hemostatic assays (TEG, Multiplate) under low-dose prostacyclin infusion; assay type: in vivo, human
From the text: However, as for the vasodilatory effect, the antiaggretory effect is highly dose-dependent [Moncada et al 1976; O'Grady et al 1980]. […] The term “thrombelastography” or “TEG” refers to a commercially available viscoelastic whole blood hemostasis assay employing citrated or non-anticoagulated blood. The TEG analyzer uses a small whole blood sample in a rotating cup and a pin suspended in the blood by a torsion wire, which is monitored for motion. To speed up the clot formation, a standardized amount of an activator of coagulation (e.g. kaolin, tissue factor) may be added to the cup just before the pin is placed in the cup. The TEG assay is suitable for determining important parameters in the clotting activity (clot initiation time, clot build up dynamics), clot strength (maximum amplitude (MA)) and clot degradation (fibrinolysis). The TEG system's approach to monitoring patient hemostasis is based on the premise that the end result of the hemostatic process is the clot. The clot's physical properties determine whether the patient will have normal hemostasis, or will be at increased risk for hemorrhage or thrombosis. The term “Multiplate” refers to a commercially available impedance aggregometry based whole blood platelet function analyzer employing anti-coagulated blood. The Multiplate analyzer uses a small whole blood sample in a chamber with two pairs of platinum electrodes. Standardized platelet agonists are added to the blood in the chamber to investigate specific platelet activation/signaling pathways. The Multiplate assay is based on the attachment of platelets on two platinum electrodes, resulting in an increase of electrical resistance between the electrodes.

[11] = system: endothelial derived biomarkers; test: Healthy volunteer study, 2 hours i.v. Flolan infusion: plasma endothelial derived biomarkers by ELISA; assay type: in vivo, human; conditions: healthy volunteers, 4 ng/kg/min i.v. for 2 hours
Protocol: The study was conducted investigating the influence of 2 hours i.v. Flolan® (epoprostenol sodium, prostacyclin analog) infusion at a dose of 4 ng/kg/min in eight healthy male volunteers. Endothelial function was evaluated in the study e.g. by measuring plasma levels of endothelial derived biomarkers by commercially available ELISA kits. Biomarkers indicating: Endothelial glycocalyx damage (syndecan-1), endothelial cell damage (thrombomodulin) or necrosis (nucleosomes, HMGB1), endothelial cell activation (PAI-1) and endothelial cell anticoagulation (protein C, antithrombin) were investigated (FIG. 2).

[12] = Retrospective study of critically ill ICU patients on CRRT with pre-filter Flolan or heparin; assay type: in vivo, human; conditions: for 90-day mortality / 365-day mortality / platelet count during CRRT: agent given in the dialysis filter; for 30-day mortality: agent given in the dialysis filter (Flolan 5 ng/kg/min)
Protocol: The inventors conducted a retrospective study of critically ill patients treated or not treated with prostacyclin infusion during their intensive care unit (ICU) stay [Windelov et al 2010]. Ninety-four critically ill patients admitted to the ICU for medical or surgical complications, underwent hemofiltration (continuous renal replacement therapy, CRRT) with or without concomitant Flolan® (epoprostenol sodium, prostacyclin analog) treatment. Flolan® was administered at a low dose (5 ng/kg/min) in the filters to prevent these from clotting and consequently, there was only a minor spill-over of Flolan® to the systemic circulation.

[13] = healthy volunteers, during infusion
[14] = healthy volunteers, 1-4 ng/kg/min infusion

## CC#CCC(C)[C@H](O)/C=C/[C@@H]1[C@H]2C/C(=C/CCCC(=O)O)C[C@H]2C[C@H]1O (stereo partly drawn) [iloprost]
[1]; eight healthy male volunteers, continuing several hours after infusion
  circulating level of thrombomodulin: marked decrease
[1]; [13]
  circulating level of Syndecan-1: decreased
  circulating level of protein C: decreased
[2]
  nucleosome level, change intra- and postoperatively vs placebo: increased significantly more intra- and postoperatively in placebo patients compared to iloprost patients
  syndecan-1 level vs placebo: trend towards higher levels of syndecan-1 in placebo patients compared to iloprost patients
  thrombomodulin level, change intra- and postoperatively vs placebo: increased significantly more intra- and postoperatively in placebo patients compared to iloprost patients
[3]
  bleeding events vs placebo: no differences
  hemodynamics vs placebo: no differences
[4]
  sE-selectin: decreased significantly
[5]; Whipple surgery patients, 1 ng/kg/min i.v.
  TEG maximum clot firmness intra-operatively: remained stable
[6]
  Multiplate or TEG vs placebo: no differences
[7]; 1 ng/kg/min i.v.
  intra- and post-operative RBC received (median): 0 mL
  lactate post-operatively: remained unchanged
  post-operative hemoglobin (median): 6.7 mmol/L
  volume of RBC from arrival at the post-operative ward and 6 h post-operatively: 0 mL
[7]; 1 ng/kg/min i.v. intra- and post-operative
  28-day mortality vs placebo: no differences

## CCCCC[C@H](O)/C=C/[C@@H]1[C@H]2C/C(=C/CCCC(=O)O)O[C@H]2C[C@H]1O [prostacyclin]
[8]; acute critically ill patients, doses from 5-10 ng/kg/min
  systolic blood pressure: lowers systolic blood pressure dose-dependently
[8]; [14]
  blood pressure: did not influence
[8]; human volunteers, dose of 8 ng/kg/min
  diastolic blood pressure: reduced
[8]; human volunteers, doses less than 8 ng/kg/min
  effect on systolic or diastolic blood pressure: no significant effect
[8]; human volunteers, doses up to 16 ng/kg/min
  effect on systolic blood pressure: no effect
[8]; low-dose infusion up to 4 ng/kg/min, healthy volunteers and acute critically ill patients
  hemodynamic effects: negligible
[8]; patients with traumatic brain injury, AMI treated by PCI, septic shock or CABG surgery, 0.5-2 ng/kg/min infusion
  blood pressure: did not negatively influence
[9]
  blood pressure vs baseline: did not change
  heart rate vs baseline: did not change
Whole blood hemostasis
  Multiplate and TEG values, baseline vs later: no changes
[10]; acute critically ill patients (major abdominal surgery, PCI after AMI), 0.5-1 ng/kg/min infusion
  clot formation and platelet aggregation: neither influenced clot formation nor platelet aggregation
[10]; acute critically ill patients, low-dose infusion 0.5-1 ng/kg/min
  hemostasis, bleeding or adverse events related to impaired hemostasis: does not compromise hemostasis or induce bleeding or adverse events related to impaired hemostasis
[10]; general conclusion, dose dependence
  platelet aggregation: dose-dependently inhibits
[10]; healthy volunteers and acute critically ill patients, low-dose infusion up to 4 ng/kg/min
  hemostasis, bleeding or adverse events related to impaired hemostasis: does not compromise hemostasis or induce bleeding or adverse events related to impaired hemostasis
[10]; [14]
  clot formation and platelet aggregation: neither influenced clot formation nor platelet aggregation
[10]; low-dose infusion
  anti-thrombotic effects (TEG, Multiplate): no measurable anti-thrombotic effects
[5]; patients undergoing major abdominal surgery, intra- and post-operative infusion
  clot formation: improved
[11]
  circulating level of PAI-1: declined
  circulating level of antithrombin: decreased
[11]; continuing several hours after infusion
  circulating level of thrombomodulin: marked decrease
[11]; hours after ceasing infusion
  circulating level of protein C: decreased
[12]
  90-day mortality: 34%
  365-day mortality: 38%
  platelet count during CRRT: increased
  30-day mortality: 21%

## heparin
[12]
  90-day mortality: 53%
  365-day mortality: 57%
  platelet count during CRRT: declined
  30-day mortality: 39%
